Assay results as given in patent publication US20230338609A1, “MEDICAL DEVICES AND MATERIALS COMPRISING BIODEGRADABLE POLYESTERS” (AMICOAT AS, priority 2020, published 2023).
≈ marks a conversion by molar mass, not a printed value. Like-named read-outs stand apart in the source and are kept apart here. Residues, ends and D or L forms follow the SMILES beside them. *: point of attachment. NHPhenethyl = c1ccc(CCN*)cc1

Legend:
[1] = system: Methicillin resistant Staphylococcus epidermidis (MRSE) strain ATCC 27626; conditions: for MIC MRSE: MRSE ATCC 27626
[2] = system: C. albicans; conditions: Table 5
[3] = system: Staphylococcus aureus, strain ATCC 25923; conditions: for MIC S. aureus: Staphylococcus aureus ATCC 25923
[4] = system: Methicillin resistant Staphylococcus aureus (MRSA) strain ATCC 33591; conditions: for MIC MRSA: MRSA ATCC 33591
[5] = system: S. pyogenes; conditions: Table 5
[6] = system: Eggerthella lenta - ATCC 43055; experiment: MIC microbroth dilution (CLSI), extra control strain; type: cell-based; design: unit not given here; conditions: SBB
[7] = system: Candida parapsilosis ATCC 22019; experiment: as above; type: cell-based; conditions: C. parapsilosis ATCC 22019; RPMI 1640
Experimental: Yeast and filamentous fungal MIC were performed in MOPS buffered RPMI 1640 medium (MOPS buffer obtained from Sigma Aldrich Ltd., RPMI 1640 obtained from Invitrogen Ltd, Paisley, Scotland). The yeast inocula were in the range 7.5×10^2-4×10^3 CFU/mL and the filamentous fungi approximately 8×10^3-1×10^5 CFU/mL

[8] = Solubility in organic solvents; type: physicochemical; conditions: THF and chloroform
Experimental: Alternatively, both the compound of Formula (I) and the polymer may be dissolved in a single solvent, either prior to mixing, at the time or mixing or after mixing. Suitable solvents for this approach include THF and chloroform. It may be necessary to combine the compound of Formula (I) with the solvent, e.g. THF, for a long time, e.g. at least 4 hours, preferably at least 12 hours, maybe 1 or more days, possibly up to 7 or 14 days.
The Resomer RG502 bioresorbable polymer material and AMC-109 were separately dissolved in THF in such a manner that amount of AMC-109 compared to the bioresorbable polymer in the final painting solution was 5%. The dissolution of AMC-109 in THF takes several hours.
The Resomer L2065 bioresorbable polymer material and AMC-109 were separately dissolved in dichloromethane and chloroform, respectively. The ratio between AMC-109 and L2065 was the same as above.

[9] = system: Bacteroides fragilis - ATCC 25285; experiment: MIC microbroth dilution (CLSI), extra control strain; type: cell-based; design: unit not given here; conditions: B. fragilis ATCC 25285; SBB
[10] = system: Clostridium difficile - antibiotic-susceptible clinical isolate; experiment: MIC microbroth dilution (CLSI); type: cell-based; design: unit not given beside the values; conditions: C. difficile
Experimental: Supplemented Brucella broth (SBB) was used for the anaerobic strains with an inoculum of approximately 10^6 CFU/mL. SBB is a broth consisting of 1% peptone, 0.5% ‘Lab-lemco’, 1% glucose and 0.5% sodium chloride supplemented with 5 […] vitamin K (both obtained from Sigma Aldrich Ltd.)

[11] = system: Moraxella catarrhalis - β -lactamase positive clinical isolate; type: cell-based; conditions: M. catarrhalis β-lactamase positive
Excerpt: (§1) Cation-adjusted Mueller-Hinton broth (Oxoid Ltd., Basingstoke, UK and Trek Diagnostic Systems Ltd., East Grinstead, UK) (supplemented with 5% laked horse blood for Streptococcus spp., Corynebacterium jeikeium and Listeria monocytogenes) was used for aerobic bacteria, with an initial inoculum of approximately 10^5 colony-forming units (CFU)/mL.

[12] = system: Moraxella catarrhalis - reduced fluoroquinolone susceptibility clinical isolate; type: cell-based; conditions: M. catarrhalis reduced fluoroquinolone susceptibility
Excerpt: as §1

[13] = system: Streptococcus pyogenes - Macrolide (M-type) resistance clinical isolate; type: cell-based; conditions: S. pyogenes Macrolide (M-type) resistance
Excerpt: as §1

[14] = system: Haemophilus influenzae - ATCC 47247; experiment: MIC microbroth dilution (CLSI), extra control strain; design: unit not given beside the values; conditions: H. influenzae ATCC 47247; HTM
[15] = system: Salmonella sp - multi-drug resistant clinical isolate; experiment: MIC microbroth dilution (CLSI); type: cell-based
Excerpt: as §1

[16] = system: Salmonella sp - antibiotic-susceptible clinical isolate; experiment: MIC microbroth dilution (CLSI); type: cell-based
Excerpt: as §1

[17] = system: Shigella sp - antibiotic-susceptible clinical isolate; experiment: MIC microbroth dilution (CLSI); type: cell-based
Excerpt: as §1

[18] = system: Staphylococcus aureus FDA486; experiment: Murine skin infection model, topical treatment; type: in vivo; conditions: mice; cream or gel containing 2% (w/w); three treatments at three hourly intervals; biopsy three hours after last
Experimental: (§2) The skin of mice was infected with Staphylococcus aureus or Streptococcus pyogenes and subsequently given a total of three treatments at three hourly intervals. Three hours after the last treatment, skin biopsies were collected and the number of colony forming units (CFUs) present in the skin sample was determined. Results are shown in FIGS. 1 and 2, expressed as the number of colony forming units per mouse.
as §2, with “3, 4” for “1”, “5” for “2,”

[19] = system: Streptococcus pyogenes CS301; experiment: Murine skin infection model, topical treatment; type: in vivo; conditions: mice
Experimental: as §2
as §2, with “3, 4” for “1”, “5” for “2,”

[20] = system: E. coli; conditions: Table 5
[21] = system: P. aeruginosa; conditions: Table 5

## CCCNC(=O)[C@H](CCCNC(=N)N)NC(=O)[C@H](Cc1c(C(C)(C)C)[nH]c2c(C(C)(C)C)cc(C(C)(C)C)cc12)NC(=O)[C@@H](N)CCCNC(=N)N [Compound 10]
[1]; ATCC 27626
  MRSE (MIC): <2 µg/mL
[2]
  C. albicans (MIC): 10 µg/mL
[3]; ATCC 25923
  S. aureus (MIC): 2 µg/mL
[4]; ATCC 33591
  MRSA (MIC): 3 µg/mL
[5]
  S. pyogenes (MIC): 2 µg/mL

## CC(C)(C)c1cc(C(C)(C)C)c2[nH]c(C(C)(C)C)c(CC(NC(=O)C(N)CCCNC(=N)N)C(=O)NC(CCCNC(=N)N)C(=O)NCCc3ccccc3)c2c1 (stereo not drawn) [Compound 2, Arg-Tbt-Arg-NHCH2CH2Ph]
[6]
  MIC (control strain): 32
[7]
  MIC (control strain): 8
[8]
  solubility: soluble in THF and chloroform
[9]
  MIC (control strain): 64
[10]
  MIC: 16
[11]
  MIC: 4
[12]
  MIC: 8
[13]
  MIC: 16
[14]
  MIC (control strain): 4
[15]
  MIC: 8
[16]
  MIC: 8
[17]
  MIC: 8
[18]
  number of CFUs in skin biopsy vs placebo: the number of CFUs was reduced
[19]; 1% or 2% gel, three treatments at three hourly intervals
  number of CFUs in skin biopsy vs placebo gel and bactroban: more effective at reducing the number of CFUs than the placebo gel or the bactroban
[19]; 2% gel vs 1% gel
  number of CFUs in skin biopsy, 2% gel compared with 1% gel: more effective than the gel containing only 1% of compound 2

## CCCCNC(=O)[C@H](CCCNC(=N)N)NC(=O)[C@H](Cc1c(C(C)(C)C)[nH]c2c(C(C)(C)C)cc(C(C)(C)C)cc12)NC(=O)[C@@H](N)CCCNC(=N)N [Compound 9]
[1]; ATCC 27626
  MRSE (MIC): <2 µg/mL
[2]
  C. albicans (MIC): 10 µg/mL
[3]; ATCC 25923
  S. aureus (MIC): 2 µg/mL
[4]; ATCC 33591
  MRSA (MIC): 3 µg/mL
[5]
  S. pyogenes (MIC): 2 µg/mL

## CCCCCCCCCCCCCCCCNC(=O)[C@H](CCCNC(=N)N)NC(=O)[C@H](Cc1c(C(C)(C)C)[nH]c2c(C(C)(C)C)cc(C(C)(C)C)cc12)NC(=O)[C@@H](N)CCCNC(=N)N [Compound 11]
[20]
  E. coli (MIC): >100 µg/mL
[1]; Table 5, strain ATCC 27626
  MRSE (MIC): 4 µg/mL
[2]
  C. albicans (MIC): >100 µg/mL
[3]; Table 5, strain ATCC 25923
  S. aureus (MIC): 5 µg/mL
[4]; Table 5, strain ATCC 33591
  MRSA (MIC): 4 µg/mL
[21]
  P. aeruginosa (MIC): >100 µg/mL
[5]
  S. pyogenes (MIC): 6 µg/mL

## N=C(N)NCCCC(N)C(=O)NC(Cc1ccc(-c2ccc3ccccc3c2)cc1)C(=O)NC(CCCNC(=N)N)C(=O)NCCc1ccccc1 (stereo not shown) [Compound 1]
[6]
  MIC (control strain): 16
[7]
  MIC (control strain): 4
[1]
  MIC MRSE: <3 µM
[9]
  MIC (control strain): 64
[10]
  MIC: 32
[11]
  MIC: 4
[12]
  MIC: 8
[13]
  MIC: 32
[3]
  MIC S. aureus: 4 µM (≈ 2.83 µg/mL)
[14]
  MIC (control strain): 32
[4]
  MIC MRSA: <3 µM
[15]
  MIC: 16
[16]
  MIC: 16
[17]
  MIC: 32

## CC(C)CNC(=O)[C@H](CCCNC(=N)N)NC(=O)[C@H](Cc1c(C(C)(C)C)[nH]c2c(C(C)(C)C)cc(C(C)(C)C)cc12)NC(=O)[C@@H](N)CCCNC(=N)N [Compound 12]
[1]; ATCC 27626
  MRSE (MIC): 2 µg/mL
[2]
  C. albicans (MIC): 10 µg/mL
[3]; ATCC 25923
  S. aureus (MIC): <2 µg/mL
[4]; ATCC 33591
  MRSA (MIC): 3 µg/mL
[5]
  S. pyogenes (MIC): 2 µg/mL

## N=C(N)NCCC[C@H](NC(=O)[C@H](Cc1c[nH]c2ccccc12)NC(=O)[C@@H](N)CCCNC(=N)N)C(=O)NCCc1ccccc1 [Compound 6, reference compound] (H-Arg-Trp-Arg-NHPhenethyl; N-terminus assumed)
[1]
  MIC MRSE: 81 µM (≈ 50.2 µg/mL)
[3]
  MIC S. aureus: 145 µM (≈ 89.9 µg/mL)
[4]
  MIC MRSA: 97 µM (≈ 60.1 µg/mL)

## CC(C)(C)c1cc(C(C)(C)C)c2[nH]c(C(C)(C)C)c(C[C@H](NC(=O)[C@@H](N)CCCNC(=N)N)C(=O)N[C@@H](CCCNC(=N)N)C(=O)NC3CCCCC3)c2c1 [Compound 13]
[1]; ATCC 27626
  MRSE (MIC): 2 µg/mL
[2]
  C. albicans (MIC): 10 µg/mL
[3]; ATCC 25923
  S. aureus (MIC): <2 µg/mL
[4]; ATCC 33591
  MRSA (MIC): 2 µg/mL
[5]
  S. pyogenes (MIC): <2 µg/mL

## CC(C)(C)c1cc(C(C)(C)C)c2[nH]c(C(C)(C)C)c(C[C@H](NC(=O)[C@@H](N)CCCNC(=N)N)C(=O)N[C@@H](CCCNC(=N)N)C(=O)NC3CCCC3)c2c1 [Compound 14]
[1]; ATCC 27626
  MRSE (MIC): <2 µg/mL
[2]
  C. albicans (MIC): 10 µg/mL
[3]; ATCC 25923
  S. aureus (MIC): <2 µg/mL
[4]; ATCC 33591
  MRSA (MIC): >15 µg/mL
[5]
  S. pyogenes (MIC): 2 µg/mL
